Data from US7553864B2, “Compounds for the treatment of inflammatory disorders and microbial diseases” (Schering Corporation, priority 2005, dated 2009).

System: LpxC enzyme
Assay: LpxC enzyme assay (RapidFire high-throughput mass spectrometry)
Format: biochemical
Description: The standard LpxC assay consists of 0.2 nM LpxC enzyme, 1.0 μM UDP-3-O—(R-3-hydroxymyristoyl)-N-acetylglucosamine, and test compound, in assay buffer and 2% DMSO. Assay buffer is comprised of 25 mM HEPES, pH 7.3, 150 mM NaCl, 2.0 mM DTT, and 0.01% BSA. The enzyme reaction is carried out in a 96-well assay plate, in a final volume of 102 μL. Solutions of test compounds are prepared in 100% DMSO. Reaction additions, in order, are (1) 2.0 μL compound solution, (2) 80 μL of assay buffer, (3) 10 μL of 10 μM UDP-3-O—(R-3-hydroxymyristoyl)-N-acetylglucosamine (in assay buffer) and, (4) 10 μL of LpxC enzyme (20 nM in assay buffer) to initiate the reaction. In positive control reactions, addition (1) has 2.0 μL of 100% DMSO (without compound); these reactions are used as the total signal (TSB) value. Reactions are incubated at room temperature for 60 minutes when 10 μL of 1 N HCl is added to stop the reaction. The plate is shaken by hand for 10 seconds to ensure complete quenching. Assay plates are sealed with foil tape, and stored at −80° C. for 24-48 hr prior to analysis.
The concentrations of substrate and product in the reaction mixtures are determined with BioTrove's proprietary RapidFire™ high-throughput mass spectrometry (HTMS). Assay mixtures are partially purified with reverse phase chromatography, where they are washed with water containing 5 mM ammonium formate and eluted onto the mass spectrometer in 80% acetonitrile, 20% water, and 5 mM ammonium formate. The mass spectrometry peak areas of the substrate and product are measured to determine the concentration of these analytes. The assay signal is the percentage of substrate that is converted to product. Percent inhibition, % I, in test samples is determined from the following equation: […]

[1] = concentration 0.10 (unit not given)
[2] = concentration 0.20 (unit not given)
[3] = concentration 0.39 (unit not given)
[4] = concentration 0.78 (unit not given)
[5] = concentration 1.56 (unit not given)
[6] = concentration 3.13 (unit not given)
[7] = concentration 6.25 (unit not given)
[8] = concentration 12.50 (unit not given)
[9] = concentration 25 (unit not given)
[10] = concentration 50 (unit not given)

Compound | LpxC enzyme assay rating (% inhibition at indicated concentrations) [1] | LpxC enzyme assay rating (% inhibition at indicated concentrations) [2] | LpxC enzyme assay rating (% inhibition at indicated concentrations) [3] | LpxC enzyme assay rating (% inhibition at indicated concentrations) [4] | LpxC enzyme assay rating (% inhibition at indicated concentrations) [5] | LpxC enzyme assay rating (% inhibition at indicated concentrations) [6] | LpxC enzyme assay rating (% inhibition at indicated concentrations) [7] | LpxC enzyme assay rating (% inhibition at indicated concentrations) [8] | LpxC enzyme assay rating (% inhibition at indicated concentrations) [9] | LpxC enzyme assay rating (% inhibition at indicated concentrations) [10]
CN(C)C(=O)[C@H](O)[C@@H](O)C(=O)Nc1ccc(-c2ccccc2)cc1 [Compound 45] | C (less than 10% inhibition) | C (less than 10% inhibition) | C (less than 10% inhibition) | C (less than 10% inhibition) | C (less than 10% inhibition) | C (less than 10% inhibition) | C (less than 10% inhibition) | C (less than 10% inhibition) | C (less than 10% inhibition) | C (less than 10% inhibition)
CN(C)C(=O)[C@H](O)[C@@H](O)C(=O)Nc1ccc(-c2ccc(C(F)(F)F)cc2)cc1 [Compound 46] | C (less than 10% inhibition) | C (less than 10% inhibition) | C (less than 10% inhibition) | C (less than 10% inhibition) | C (less than 10% inhibition) | C (less than 10% inhibition) | C (less than 10% inhibition) | B (10-30% inhibition) | B (10-30% inhibition) | A (greater than 30% inhibition)
CN(C)C(=O)[C@H](O)[C@@H](O)C(=O)N1CCN(c2ccc(-c3ccccc3)cc2)CC1 [Compound 47] | B (10-30% inhibition) | B (10-30% inhibition) | C (less than 10% inhibition) | B (10-30% inhibition) | C (less than 10% inhibition) | B (10-30% inhibition) | B (10-30% inhibition) | B (10-30% inhibition) | C (less than 10% inhibition) | B (10-30% inhibition)
CCCCc1ccc(NC(=O)[C@H](O)[C@@H](O)C(=O)N(C)C)cc1 [Compound 48] | B (10-30% inhibition) | C (less than 10% inhibition) | C (less than 10% inhibition) | C (less than 10% inhibition) | C (less than 10% inhibition) | B (10-30% inhibition) | C (less than 10% inhibition) | B (10-30% inhibition) | C (less than 10% inhibition) | B (10-30% inhibition)
CCCc1ccc(NC(=O)[C@H](O)[C@@H](O)C(=O)N(C)C)cc1 [Compound 49] | C (less than 10% inhibition) | C (less than 10% inhibition) | B (10-30% inhibition) | C (less than 10% inhibition) | C (less than 10% inhibition) | C (less than 10% inhibition) | C (less than 10% inhibition) | C (less than 10% inhibition) | B (10-30% inhibition) | C (less than 10% inhibition)
CCC(C)c1ccc(NC(=O)[C@H](O)[C@@H](O)C(=O)N(C)C)cc1 (stereo partly drawn) [Compound 50] | C (less than 10% inhibition) | C (less than 10% inhibition) | C (less than 10% inhibition) | B (10-30% inhibition) | C (less than 10% inhibition) | C (less than 10% inhibition) | B (10-30% inhibition) | B (10-30% inhibition) | C (less than 10% inhibition) | B (10-30% inhibition)
CN(C)C(=O)[C@H](O)[C@@H](O)C(=O)N1CCC(c2ccc(C(F)(F)F)cc2)CC1 [Compound 51] | B (10-30% inhibition) | C (less than 10% inhibition) | C (less than 10% inhibition) | C (less than 10% inhibition) | B (10-30% inhibition) | C (less than 10% inhibition) | C (less than 10% inhibition) | C (less than 10% inhibition) | B (10-30% inhibition) | B (10-30% inhibition)
CN(C)C(=O)[C@H](O)[C@@H](O)C(=O)N1CCC(c2ccc3ccccc3c2)CC1 [Compound 52] | C (less than 10% inhibition) | C (less than 10% inhibition) | C (less than 10% inhibition) | C (less than 10% inhibition) | C (less than 10% inhibition) | C (less than 10% inhibition) | B (10-30% inhibition) | B (10-30% inhibition) | B (10-30% inhibition) | A (greater than 30% inhibition)
CN(C)C(=O)[C@H](O)[C@@H](O)C(=O)Nc1ccc(Oc2ccccc2)cc1 [Compound 53] | C (less than 10% inhibition) | C (less than 10% inhibition) | C (less than 10% inhibition) | B (10-30% inhibition) | C (less than 10% inhibition) | C (less than 10% inhibition) | C (less than 10% inhibition) | C (less than 10% inhibition) | C (less than 10% inhibition) | C (less than 10% inhibition)
